Source: patent US10392348B2, “2-oxo-3,4-dihydroquinoline compounds as plant growth regulators” (Syngenta Participations AG, priority 2015, dated 2019)
Like-named read-outs stand apart in the source and are kept apart here.

Tests used:
[1] = system: soybean plants (variety S20-G7); assay: Reduced plant water use in soybean (foliar spray, repeated weighing of pots); format: in vivo; conditions: Glycine max, foliar, Table B1, sprayed at 500 μM, vs negative control
Outline: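 Compounds in blank EC formulation diluted in water with EXTRAVON 1 g/20 L, foliar-sprayed on 12-day-old soybean in growth chambers. Water use from repeated pot weighing at a.m./p.m. periods over 0-2 DAA, summed to cumulative 0-2.5 DAA; ANCOVA with pre-application baseline covariate, relative to blank-formulation control.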

[2] = system: corn plants (variety NK OCTET); assay: Reduced plant water use in corn (foliar spray, repeated weighing of pots); format: in vivo; conditions: Zea mays, corn plants sprayed at 500 μM, average of 6 pots
Outline: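 Twelve-day-old corn plants sprayed on foliage with EC formulations diluted in water with 0.4% rape seed methyl ester. Day-time water use tracked by repeated pot weighing through 2.5 DAA, summed cumulatively; analysed by covariance with water use 1 day before application as baseline.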

[3] = 0 h, 0 DAA a.m. (10:30-12:50), read-out: % WU 0 DAA AM
[4] = 24 h, 1 DAA a.m. (7:30-12:50), read-out: % WU 1DAA AM
[5] = 24 h, 1 DAA p.m. (14:00-19:50), read-out: % WU 1DAA PM
[6] = 48 h, 2 DAA a.m. (07:30-12:50), read-out: % WU 2 DAA AM
[7] = 48 h, 2 DAA p.m. (14:00-19:50), read-out: % WU 2 DAA PM
[8] = 60 h, cumulative total WU (0-2.5 DAA), read-out: % WU Total 0 to 2.5 DAA
[9] = 0 h, water use during day time vs negative control, 0 DAA a.m. (10:30-12:50), read-out: % WU 0 DAA AM
[10] = 0 h, water use during day time vs negative control, 0 DAA p.m. (14:00-19:50), read-out: % WU 0DAA PM
[11] = 24 h, water use during day time vs negative control, 1 DAA a.m. (07:30-12:50), read-out: % WU 1DAA AM
[12] = 24 h, water use during day time vs negative control, 1 DAA p.m. (14:00-19:50), read-out: % WU 1DAA PM
[13] = 48 h, water use during day time vs negative control, 2 DAA a.m. (07:30-12:50), read-out: % WU 2 DAA AM
[14] = 48 h, water use during day time vs negative control, 2 DAA p.m. (14:00-19:50), read-out: % WU 2 DAA PM
[15] = 60 h, cumulative total water use 0-2.5 DAA (sum of the time points) vs negative control, read-out: % WU Total 0 to 2.5 DAA

Structure (SMILES)	change in vivo at 500 µM [1, 3] [%]	change in vivo at 500 µM [1, 4] [%]	change in vivo at 500 µM [1, 5] [%]	change in vivo at 500 µM [1, 6] [%]	change in vivo at 500 µM [1, 7] [%]	change in vivo at 500 µM [1, 8] [%]	change in vivo at 500 µM [2, 9] [%]	change in vivo at 500 µM [2, 10] [%]	change in vivo at 500 µM [2, 11] [%]	change in vivo at 500 µM [2, 12] [%]	change in vivo at 500 µM [2, 13] [%]	change in vivo at 500 µM [2, 14] [%]	change in vivo at 500 µM [2, 15] [%]	melting point [°C]
CCCN1C(=O)CCc2cc(CNS(=O)(=O)c3ccccc3F)ccc21 [Compound 3.007, 2-fluoro-N-[(2-oxo-1-propyl-3,4-dihydroquinolin-6-yl)methyl]benzenesulfonamide]	-16.1	-12.7	-9.7	-7.7	-7.6	-10.8	-16	-12	-11.4	-9.5	-6.6	-5.9	-9.4	155 to 156
CCCN1C(=O)CCc2cc(CNS(=O)(=O)c3ccc(OC)cc3)ccc21 [Compound 3.010, 4-methoxy-N-[(2-oxo-1-propyl-3,4-dihydroquinolin-6-yl)methyl]benzenesulfonamide]	-28	-3	-1	-2.1	-1.7	-5.7	-14.4	-8.3	-6.3	-5.4	-2.5	-2.2	-5.5	143 to 144
CCCN1C(=O)CCc2cc(CNS(=O)(=O)c3ccc4ccccc4c3)ccc21 [Compound 3.075, N-[(2-oxo-1-propyl-3,4-dihydroquinolin-6-yl)methyl]naphthalene-2-sulfonamide]	-10.8	-2.1	-0.6	-2.1	-2	-3.3	-9.8	-7.9	-8.2	-6.4	-4.9	-3.3	-6.3	169 to 173
CCCN1C(=O)CCc2cc(CNS(=O)(=O)c3ccc(F)cc3F)ccc21 [Compound 3.006, 2,4-difluoro-N-[(2-oxo-1-propyl-3,4-dihydroquinolin-6-yl)methyl]benzenesulfonamide]	-36.5	-28.3	-24.2	-17.8	-14.9	-24.5	-18	-14.1	-12.6	-10.2	-6.6	-5.7	-10.3	141 to 144
CCCN1C(=O)CCc2cc(CNS(=O)(=O)c3c(F)cccc3F)ccc21 [Compound 3.005, 2,6-difluoro-N-[(2-oxo-1-propyl-3,4-dihydroquinolin-6-yl)methyl]benzenesulfonamide]	-37.5	-24.9	-21.9	-12.9	-12	-21.9	-16.2	-10.5	-9.2	-7.9	-5.4	-5.3	-8.2	182 to 183
CCCN1C(=O)CCc2cc(CNS(=O)(=O)c3cc(Cl)sc3Cl)ccc21 [Compound 3.064, 2,5-dichloro-N-[(2-oxo-1-propyl-3,4-dihydroquinolin-6-yl)methyl]thiophene-3-sulfonamide]	-34.7	-23.3	-21.3	-17.2	-13.5	-22.2	-12.6	-14.2	-11.6	-9.9	-5.6	-4.7	-9.3	131 to 134
CCCN1C(=O)CCc2cc(CNS(=O)(=O)c3cn(C)cn3)ccc21 [Compound 3.063, 1-methyl-N-[(2-oxo-1-propyl-3,4-dihydroquinolin-6-yl)methyl]imidazole-4-sulfonamide]	-9.3	-5.1	-3.9	-6.6	-5	-5.5	-8.4	-3.1	-3	-1	-1.5	2	-1.4	168 to 171
CCCN1C(=O)CCc2cc(CNS(=O)(=O)CCC(F)(F)F)ccc21 [Compound 3.067, 3,3,3-trifluoro-N-[(2-oxo-1-propyl-3,4-dihydroquinolin-6-yl)methyl]propane-1-sulfonamide]	-28.4	-19.3	-17.2	-13.3	-9.5	-17.2	-14.7	-10.7	-12.1	-11.5	-9.9	-10.1	-11.1	132 to 135
